In US10308681B2, “Pharmaceutical composition for the prevention and treatment of cardiovascular disease comprising the peptide having the ability to inhibit angiotensin-1 converting enzyme as an active ingredient” (University-Industry Cooperation Group of Kyung Hee …, priority 2012, dated 2019):

Assays:
[1] = tested on: spontaneously hypertensive rats (SHR); assay: in vivo blood pressure regulation by a single administration (systolic pressure); set-up: species or system rat
Procedure: To investigate in vivo blood pressure regulation effect of the functional peptide separated from the oyster enzyme hydrolysate by a single administration, the peptide was administered to the hypertension animal model once (single administration), followed by the investigation of blood pressure.
Particularly, male spontaneously hypertensive rats (SHR; Central Lab. Animal Inc.) at 11 weeks and Wistar rats (Central Lab. Animal Inc.) were purchased, which were raised in a laboratory animal room in which the temperature was regulated at 22±3° C., the humidity was controlled at 50±5%, and the light/dark cycle was set at 12 h/12 h. Feeds and drinking water were provided freely. After a week of adaptation, the animals were divided into the experimental and the control groups and used for the experiment according to the guide line of Association for Assessment and Accreditation of Laboratory Care International approved by Institutional Animal Care and Use Committee, Kyunghee University College of Pharmacy. […] Then the animals were fixed for 20 minutes in a rat temperature control unit in which the temperature was maintained at 42° C. at the time point of 0, 3, 6, 9, 12, and 24 h, to let the tail vessel fully expanded. Then, systolic pressure was measured to investigate the antihypertensive activity.

[2] = tested on: spontaneously hypertensive rats (SHR); assay: in vivo blood pressure regulation by the repeated administration (systolic pressure); set-up: species or system rat; conditions: oral, daily for 4 weeks, hydrolysate 100 mg/kg, YA 50 μg/kg
Procedure: To investigate in vivo blood pressure regulation effect of the functional peptide separated from the oyster enzyme hydrolysate by the repeated administration, the peptide was administered to the hypertension animal model repeatedly, followed by the investigation of blood pressure.
(§1) Particularly, the same rats as described in Example <5-2> were purchased and raised under the same condition. […] Systolic pressure was measured by the same manner as described in Example <5-2> on week 0, week 1, week 2, week 3, and week 4. […] The blood sample was centrifuged at 3,000 rpm for 10 minutes, and as a result serum was obtained and stored at −80° C. The levels of blood ACE and angiotensin-II in the stored serum were measured by using a commercial ELISA kit (USCN Life Science, China) according to the manufacturer's protocol.

blood ACE = assay: level of blood ACE in serum by ELISA after repeated administration; assay type: in vivo, rat; conditions: SHR serum after 4 weeks of oral administration, compared with negative control
Procedure: as §1

blood angiotensin-II = assay: level of blood angiotensin-II in serum by ELISA after repeated administration; assay type: in vivo, rat; conditions: SHR serum after 4 weeks of oral administration, compared with negative control
Procedure: as §1

[3] = tested on: mild hypertension patients; conditions: Shimizu 1994; cited from earlier work

Compound: C[C@H](CS)C(=O)N1CCC[C@H]1C(=O)O [Captopril, reference compound]
- blood pressure lowering effect ([1]; by the negative control, Captopril 8 mg/kg, hydrolysate 100 mg/kg): 18˜19%

Compound: C[C@H](NC(=O)[C@@H](N)Cc1ccc(O)cc1)C(=O)O [YA, tyrosine-alanine]
- blood pressure lowering effect after 6 hours from the administration ([1]; 50 μg/kg, 6 hours): 33.9%
- blood pressure on repeated administration (in words) [2]: blood pressure did not increase for 2 weeks
- level of blood ACE (in words) (blood ACE): significantly decreased
- level of blood angiotensin-II (in words) (blood angiotensin-II): significantly decreased

Compound: valine-tyrosine [Val-Tyr]
- activity of reducing blood pressure (in words) [3]: activity of reducing blood pressure
